Reference: US9505741B2, “Prolylhydroxylase inhibitors and methods of use” (CORNELL UNIVERSITY, priority 2010, dated 2016)

test system: HIF ODD-luc reporter (HIF PHD-controlled stability); experiment: HTS with cell-based HIF ODD-luciferase reporter (SH-SY5Y-ODD-luc cells); set-up: species or system human; conditions: 10 μM, three hours
Source text: For HTS, a cell-based reporter system was employed. The cell-based reporter system was generated by fusing HIF-1a oxygen degradable domain (ODD) to luciferase (Safran M. et al., PNAS, 2006, 103, 105-110), which represents a cell-based capture assay monitored by the consumption of the luciferase-labeled HIF substrate under the conditions more physiological than in vitro test tubes. In accord with their structure activity relationship in reporter assay, the best “hits” stabilize HIF1, upregulate known HIF target genes in a human neuronal line, and exert neuroprotective effects in established model of oxidative stress in cortical neurons.
The reporter cell lines constitutively expressing ODD-luc (human neuroblastoma, SH-SY5Y) were stable for more than one year without significant change in their response to canonical PHD inhibitors such as DFO, dihydroxybenzoate (DHB), dimethyloxalylglycine (DMOG), and ciclopirox (FIG. 1B). In order to verify the specificity of luciferase changes as an assay for PHD activity, several control lines were developed: the control line expressing ODD-luc with proline 564 and 567 mutated to Ala generates luciferase fusion that cannot be degraded and experimentally identifies a ceiling level of ODD-luc protein attainable in these cells. The background signal for the wild-type HIF ODD-luc line (PYIP) corresponds to approximately 5-6% of the ODD-luc levels in the control line AYIA (double mutant P564A/P567A line) (FIG. 2). Treatment with 10 μM ciclopirox results in a 10-fold increase of a background signal for the wild-type ODD-luc reporter (PYIP line), i.e. reaches almost 50% of the threshold value (FIG. 2).
The assay was optimized for HTS format to provide Z values above 0.7. SH-SY5Y-ODD-luc cells were plated into 384—well white flat-bottom plates at 7,000 cell/well in 30 μl of serum and incubated overnight at 37° C., 5% CO2. The next day, compounds were added to a final concentration of 10 μM, plates were incubated for three hours at 37° C., and luciferase activity was measured using SteadyGlo™ reagent (Promega). Each plate had two internal standards, ciclopirox (100%), and DMSO (0%). The reporter activation (%) was calculated as a ratio (L−LDMSO)/(Lciclopirox−LDMSO). Hits were defined as those >25%. HTS of 85,000 compounds was performed at Rockefeller HTS Resource Center. 295 hits from the initial screen have been tested in quadruplicate, 160 were confirmed. Classification into 10 structural clusters has been done manually; 25 hits were singletons.

SMILES	reporter activation in HTS, in words
CCC(C)C(N)C(=O)Nc1nnc(-c2ccc(Br)cc2)s1 (stereo not drawn) [2-amino-N-(5-(4-bromophenyl)-[1,3,4]thiadiazol-2-yl)-3-methylpentanamide]	no reporter activation at all
COc1ccc(-c2nnc(NC(=O)C(N)Cc3ccccc3)s2)cc1 (stereo not drawn) [2-amino-N-(5-(4-methoxy-phenyl)-[1,3,4]thiadiazol-2-yl)-3-phenylpropanamide]	no reporter activation at all
FC(F)(F)c1ccccc1-n1c(S)nnc1-c1nccc2ccccc12 [5-isoquinolin-1-yl-4-(2-trifluoromethyl-phenyl)-4H-[1,2,4]triazole-3-thiol]	close to that for the internal standard
N[C@H](Cc1ccc(O)c(O)c1)C(=O)O [D-dopa, reference compound]	not
CC(C)n1c(S)nnc1-c1nccc2ccccc12 [V, 4-isopropyl-5-isoquinolin-1-yl-4H-[1,2,4]triazole-3-thiol]	close to that for the internal standard
Oc1c(Br)cc(Br)c2cccnc12 [broxyquinoline, reference compound]	comparable
C[C@@](Cc1ccc(O)c(O)c1)(NN)C(=O)O [carbidopa, reference compound]	not
O=C(CCl)c1ccc(O)c2ncccc12 [chloroacetoquinoline]	comparable to 8-hydroxyquinoline itself
Oc1c(Cl)cc(Cl)c2cccnc12 [chloroxine, reference compound]	comparable
Oc1c(I)cc(Cl)c2cccnc12 [clioquinol, reference compound]	comparable
NCCc1ccc(O)c(O)c1 [dopamine, reference compound]	not
CC1=NN(c2ccccc2)C(=O)C1 [edaravone, reference compound]	no reporter activation

same assay, conditions: 10 μM, three hours, SH-SY5Y-ODD-luc

SMILES	fold reporter activation over background	reporter activation (%) relative to ciclopirox (100%) and DMSO (0%)
O=C(C=C(O)c1ccccc1)c1ccccc1O [2′β-dihydroxychalcone]	7.5 fold	71%
S=C(Nc1ccccc1)Nc1nccs1 [III, 1-phenyl-3-(1,3-thiazol-2-yl)thiourea]	five-fold	–
Cc1cc(C2CCCCC2)n(O)c(=O)c1 [ciclopirox, reference compound]	10 fold	–

same assay, conditions: Homo sapiens, 3 h, three hours, SH-SY5Y-ODD-luc, read-out: reporter activation (%) relative to ciclopirox (100%) and DMSO (0%)

SMILES	activation at 10 µM
Oc1cccc(CN2CCCn3cccc3C2c2ccc(F)cc2)c1O (stereo not drawn) [3-((1-(4-fluorophenyl)-4,5-dihydro-1H-pyrrolo[1,2-a][1,4]diazepin-2(3H)-yl)methyl)benzene-1,2-diol]	40%
Oc1cccc(CN2CCN(CCOC(c3ccccc3)c3ccc(F)c(F)c3)CC2)c1O (stereo not drawn) [3-((4-(2-((3,4-difluorophenyl) (phenyl)methoxy)ethyl)piperazin-1-yl)methyl)benzene-1,2-diol]	60%
O=C1/C(=N\Nc2nc3ccccc3s2)C(c2ccccc2)=NN1c1ccccc1 [(Z)-4-(benzo[d]thiazol-2-ylhydrazono)-1,3-diphenyl-1H-pyrazol-5(4H)-one]	70%
O=C1/C(=N\Nc2nccs2)C(c2ccccc2)=NN1c1ccccc1 [I, (Z)-1,3-diphenyl-4-(thiazol-2-yl-hydrazono)-1H-pyrazol-5(4H)-one]	86%
S=C(Nc1ccccc1)Nc1nccs1 [III, 1-phenyl-3-(1,3-thiazol-2-yl)thiourea]	41%
O=C(Nc1nnc(-c2cccc(Br)c2)s1)C1CCCN1 (stereo not drawn) [IV, N-[5-(3-bromophenyl)-[1,3,4]thiadiazol-2-yl]pyrrolidine-2-carboxamide]	35%
CC(C)n1c(S)nnc1-c1nccc2ccccc12 [V, 4-isopropyl-5-isoquinolin-1-yl-4H-[1,2,4]triazole-3-thiol]	90%
O=C1/C(=C\c2ccc(O)c(O)c2)SC(=S)N1c1ccccc1 [VI, (E)-5-(3,4-dihydroxybenzylidene)-3-phenyl-2-thioxothiazolidin-4-one]	38%
